The target of the assay is T1, human DPP-IV (Homo sapiens, UniProt P27487).
T1 construct: made in house; host or cells: Pichia pastoris
The assay is described as follows: DPP-IV activity assay (fluorogenic / colorimetric), IC50 determination. To be noted: natural human DPP-IV from human plasma pool or recombinant human DPP-IV; 37° C., pH 7.8. The class given is biochemical. As for the experimental part: Activity of DPP-IV inhibitors are tested with natural human DPP-IV derived from a human plasma pool or with recombinant human DPP-IV. Human citrate plasma from different donors is pooled, filtered through a 0.2 micron membrane under sterile conditions and aliquots of 1 ml are shock frozen and stored at −120° C. until used. In the colorimetric DPP-IV assay 5 to 10 μl human plasma and in the fluorometric assay 1.0 μl of human plasma in a total assay volume of 100 μl is used as an enzyme source. The cDNA of the human DPP-IV sequence of amino acid 31- to 766, restricted for the N-terminus and the transmembrane domain, is cloned into Pichia pastoris. Human DPP-IV is expressed and purified from the culture medium using conventional column chromatography including size exclusion and anion and cation chromatography. The purity of the final enzyme preparation of Coomassie blue SDS-PAGE is >95%. In the colorimetric DPP-IV assay 20 ng rec.-h DPP-IV and in the fluorometric assay 2 ng rec-h DPP-IV in a total assay volume of 100 μl is used as an enzyme source.
In the fluorogenic assay Ala-Pro-7-amido-4-trifluoromethylcoumarin (Calbiochem No 125510) is used as a substrate. A 20 mM stock solution in 10% DMF/H2O is stored at −20° C. until use. […]
Fluorescence is detected in a Perkin Elmer Luminescence Spectrometer LS 50B at an excitation wavelength of 400 nm and an emission wavelength of 505 nm continuously every 15 seconds for 10 to 30 minutes. Initial rate constants are calculated by best fit linear regression. The absorption of pNA liberated from the colorimetric substrate is detected in a Packard SpectraCount at 405 nm continuously every 2 minutes for 30 to 120 minutes. Initial rate constants are calculated by best fit linear regression. […]
IC50 determinations of test compounds are calculated by non-linear best fit regression of the DPP-IV inhibition of at least 5 different compound concentrations. Kinetic parameters of the enzyme reaction are calculated at least 5 different substrate concentrations and at least 5 different test compound concentrations.

The structures appear in SMILES notation. Counter-ions that a name gives are not always drawn.

Broadly, the IC50 is the concentration needed to halve the response being measured.

T1 sequence (P27487 31-766): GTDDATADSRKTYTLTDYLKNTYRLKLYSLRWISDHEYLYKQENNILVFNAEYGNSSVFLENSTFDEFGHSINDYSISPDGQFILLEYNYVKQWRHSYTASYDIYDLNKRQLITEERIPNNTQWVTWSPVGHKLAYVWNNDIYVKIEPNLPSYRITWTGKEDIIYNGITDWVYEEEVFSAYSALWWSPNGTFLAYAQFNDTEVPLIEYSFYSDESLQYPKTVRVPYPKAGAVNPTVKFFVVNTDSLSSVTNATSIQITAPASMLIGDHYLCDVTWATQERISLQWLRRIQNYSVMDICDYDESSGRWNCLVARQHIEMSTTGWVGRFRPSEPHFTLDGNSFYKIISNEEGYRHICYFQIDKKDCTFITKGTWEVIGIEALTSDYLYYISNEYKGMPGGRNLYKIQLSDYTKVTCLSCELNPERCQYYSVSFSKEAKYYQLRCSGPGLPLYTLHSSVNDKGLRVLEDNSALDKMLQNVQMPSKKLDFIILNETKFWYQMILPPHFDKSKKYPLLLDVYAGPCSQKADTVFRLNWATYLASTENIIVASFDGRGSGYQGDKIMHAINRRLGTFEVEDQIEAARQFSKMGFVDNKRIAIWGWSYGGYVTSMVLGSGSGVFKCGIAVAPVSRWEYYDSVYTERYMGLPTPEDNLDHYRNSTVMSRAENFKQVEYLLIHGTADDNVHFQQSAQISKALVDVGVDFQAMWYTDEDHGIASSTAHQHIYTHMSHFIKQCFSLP

`COc1cc2c(cc1OCC(=O)Nc1nn[nH]n1)CCN1C[C@H](c3cc(C)ccn3)[C@@H](N)C[C@@H]21` (racemic) [Example 13, (2S,3S,11bS)- and (2R,3R,11bR)-2-[2-Amino-10-methoxy-3-(4-methyl-pyridin-2-yl)-1,3,4,6,7,11b-hexahydro-2H-pyrido[2,1-a]isoquinolin-9-yloxy]-N-(2H-tetrazol-5-yl)-acetamide hydrochloride]: the concentration for half-maximal inhibition (IC50) turned out to be 1.1 nM.

Consider `COc1ccc2c(c1OCC(=O)N(C)C)CCN1C[C@H](c3cccc(C)c3)[C@@H](N)C[C@@H]21` (racemic) [Example 48, rac-2-((2S,3S,11bS)-2-Amino-9-methoxy-3-m-tolyl-1,3,4,6,7,11b-hexahydro-2H-pyrido[2,1-a]isoquinolin-8-yloxy)-N,N-dimethyl-acetamide], for which the IC50 amounted to 0.3 nM.

Turning to `COc1cc2c(cc1OCC(N)=O)CCN1C[C@H](c3cc(C)ccc3C)[C@@H](N)C[C@@H]21` (racemic) [Example 8, (2S,3S,11bS)- and (2R,3R,11bR)-2-[2-Amino-3-(2,5-dimethyl-phenyl)-10-methoxy-1,3,4,6,7,11b-hexahydro-2H-pyrido[2,1-a]isoquinolin-9-yloxy]-acetamide, hydrochloride], the IC50 amounted to 0.1 nM.

For the origin of these results see US20100222340A1, “SUBSTITUTED PYRIDO [1,2-a] ISOQUINOLINE DERIVATIVES” (priority 2004, published 2010).
